Measured values: ChEMBL document CHEMBL4699515, “Staprexanthones, Xanthone-Type Stimulators of Pancreatic β-Cell Proliferation from a Mangrove Endophytic Fungus” (J Nat Prod, 2020)
Calls of active or inactive are those of the source. No cut-off for these calls is given here.

What was measured:
[1] = Induction of beta cells proliferation in 5 days post fertilize Tg(-1.2ins:H2BmCherry) zebra fish larvae assessed as beta cell number at 10 uM after 24 hrs by confocal microscopic method (reference value: 35 +/- 1); format: functional, Danio rerio, Pancreatic beta cell
[2] = Induction of beta cells proliferation in 6 days post fertilize Tg(-1.2ins:H2BmCherry)Tg(ins:mAG-zGeminin(1/100)) zebra fish larvae assessed as increase in beta cell proliferation at 25 uM after 24 hrs by confocal microscopic method relative to control; format: functional, Danio rerio, Pancreatic beta cell
[3] = Induction of beta cells proliferation in 6 days post fertilize Tg(-1.2ins:H2BmCherry)Tg(ins:mAG-zGeminin(1/100)) zebra fish larvae assessed as number of replicated beta cells at 10 uM after 24 hrs by confocal microscopic method (reference value: 1.7 +/- 0.5); format: functional, Danio rerio, Pancreatic beta cell
INS1(832/13) [4] = assay: Induction of cell cycle progression at G1/S transition in rat INS-1 832/13 cells assessed as increase in Cdk 4 mRNA expression at 10 uM after 24 hs by qRT-PCR analysis; format: functional, cell-based; conditions: time 24.0 hrs
INS1(832/13) [5] = assay: Induction of cell cycle progression at G1/S transition in rat INS-1 832/13 cells assessed as decrease in p21 mRNA expression at 10 uM after 24 hs by qRT-PCR analysis; format: functional, cell-based; conditions: time 24.0 hrs
INS1(832/13) [6] = assay: Induction of cell proliferation in rat INS-1 832/13 cells after 24 hrs by CCK8 assay; format: functional, cell-based
INS1(832/13) [7] = assay: Induction of cell cycle progression at G1/S transition in rat INS-1 832/13 cells assessed as increase in Cyclin E mRNA expression at 10 uM after 24 hs by qRT-PCR analysis; format: functional, cell-based; conditions: time 24.0 hrs
Pancreatic beta cell [8] = assay: Induction of beta cells proliferation in 6 days post fertilize Tg(-1.2ins:H2BmCherry)Tg(ins:mAG-zGeminin(1/100)) zebra fish larvae assessed as increase in beta cell proliferation after 24 hrs by confocal microscopic method; format: functional; conditions: Danio rerio, dose microM 5-25, time 24.0 hrs
INS1(832/13) [9] = assay: Induction of cell cycle progression at G1/S transition in rat INS-1 832/13 cells assessed as decrease in p27 mRNA expression at 10 uM after 24 hs by qRT-PCR analysis; format: functional, cell-based; conditions: time 24.0 hrs
Pancreatic beta cell [10] = assay: Induction of beta cells proliferation in 6 days post fertilize Tg(-1.2ins:H2BmCherry)Tg(ins:mAG-zGeminin(1/100)) zebra fish larvae assessed as increase in total beta cells after 24 hrs by confocal microscopic method; format: functional; conditions: Danio rerio, dose microM 5-25, time 24.0 hrs
INS1(832/13) [11] = assay: Induction of cell cycle progression at G1/S transition in rat INS-1 832/13 cells assessed as increase in Cdk 2 mRNA expression at 10 uM after 24 hs by qRT-PCR analysis; format: functional, cell-based; conditions: time 24.0 hrs
Pancreatic beta cell [12] = assay: Induction of beta cells proliferation in 6 days post fertilize Tg(-1.2ins:H2BmCherry)Tg(ins:mAG-zGeminin(1/100)) zebra fish larvae assessed as increase in beta cells at 50 uM after 24 hrs by confocal microscopic method relative to control; format: functional; conditions: Danio rerio
Pancreatic beta cell [13] = assay: Induction of beta cells proliferation in 6 days post fertilize Tg(-1.2ins:H2BmCherry)/TgBAC(neurod1:eGFP) zebra fish larvae at 10 uM after 24 hrs by confocal microscopic method; format: functional, tissue-based; conditions: Danio rerio
Pancreatic beta cell [14] = assay: Induction of beta cells proliferation in 6 days post fertilize Tg(-1.2ins:H2BmCherry)/Tg(gcga:eGFP) zebra fish larvae at 10 uM after 24 hrs by confocal microscopic method; format: functional; conditions: Danio rerio
[15] = Toxicity in 6 days post fertilize Tg(-1.2ins:H2BmCherry)Tg(ins:mAG-zGeminin(1/100)) zebra fish beta cells at 50 uM after 24 hrs by confocal microscopic method; format: tissue-based, Danio rerio; conditions: zebrafish, pancreatic beta cell
Pancreatic beta cell [16] = assay: Induction of beta cells proliferation in 6 days post fertilize Tg(-1.2ins:H2BmCherry)Tg(ins:mAG-zGeminin(1/100)) zebra fish larvae assessed as increase in beta cell proliferation at 25 to 50 uM after 24 hrs by confocal microscopic method; format: functional; conditions: Danio rerio, dose microM 25-50, time 24.0 hrs
Pancreatic beta cell [17] = assay: Induction of beta cells proliferation in 6 days post fertilize Tg(-1.2ins:H2BmCherry)Tg(ins:mAG-zGeminin(1/100)) zebra fish larvae assessed as increase in beta cell proliferation at 5 to 10 uM after 24 hrs by confocal microscopic method; format: functional; conditions: Danio rerio, dose microM 5-10, time 24.0 hrs
Pancreatic beta cell [18] = assay: Induction of beta cells proliferation in 6 days post fertilize Tg(-1.2ins:H2BmCherry)Tg(ins:mAG-zGeminin(1/100)) zebra fish larvae assessed as increase in total beta cells at 25 to 50 uM after 24 hrs by confocal microscopic method; format: functional, cell-based; conditions: Danio rerio, dose microM 25-50, time 24.0 hrs
Pancreatic beta cell [19] = assay: Induction of beta cells proliferation in 6 days post fertilize Tg(-1.2ins:H2BmCherry)Tg(ins:mAG-zGeminin(1/100)) zebra fish larvae assessed as increase in total beta cells at 5 to 10 uM after 24 hrs by confocal microscopic method; format: functional; conditions: Danio rerio, dose microM 5-10, time 24.0 hrs

Row | Compound | Activity [1] | Activity [2] [%] | Activity [3] | Activity (INS1(832/13) [4]) | Activity (INS1(832/13) [5]) | Activity (INS1(832/13) [6]) | Activity (INS1(832/13) [7]) | Activity (Pancreatic beta cell [8]) | Activity (INS1(832/13) [9]) | Activity (Pancreatic beta cell [10]) | Activity (INS1(832/13) [11]) | Activity (Pancreatic beta cell [12]) | Activity (Pancreatic beta cell [13]) | Activity (Pancreatic beta cell [14]) | Activity [15] | Activity (Pancreatic beta cell [16]) | Activity (Pancreatic beta cell [17]) | Activity (Pancreatic beta cell [18]) | Activity (Pancreatic beta cell [19])
1 | C[C@]12C=CC(=O)C=C1CC[C@@H]1[C@@H]2[C@@H](O)C[C@@]2(C)[C@H]1CC[C@]2(O)C(=O)CO [PREDNISOLONE] | 40 |  |  |  |  |  |  |  |  |  |  |  |  |  |  |  |  |  | 
2 | C=CC(C)(C)c1c(C)c(CC=C(C)C)c(O)c2c(=O)c3c(CO)cccc3oc12 | 40 | 10 | 3.6 | Active | Active | Active | Active | Dose-dependent effect | Active | Dose-dependent effect | Active | inactive | Active | Active | Toxic |  |  |  | 
3 | C=CC(C)(C)c1cc(CC=C(C)C)c(O)c2c(=O)c3c(CO)cc(C)cc3oc12 | 40 |  | 4.3 | Active | Active | Active | Active |  | Active |  | Active |  | Active | Active | Toxic | inactive | Dose-dependent effect | inactive | Dose-dependent effect
4 | CC(C)=CCc1c(C)cc2oc3cccc(C4O[C@H](C)[C@@H](C)O4)c3c(=O)c2c1O | 39 |  |  |  |  |  |  |  |  |  |  |  |  |  |  |  |  |  | 
